Source: patent EP0642348B1, “[…] PEPTIDES AND METHODS OF THEIR USE” (THE REGENTS OF THE UNIVERSITY OF CALIFORNIA, priority 1992, dated 2000)
No end group written: not given here.

How the values were obtained:
[1] = tested on: wild-type Salmonella typhimurium (ATCC 10428); experiment: agar (plate) diffusion antibacterial assay, clear zones; assay type: cell-based; settings: wild-type S. typhimurium; modified plate diffusion assay; result in words, compared with the phoP mutant
Source text: (§1) • Figure 1 provides the consensus structures of mouse cryptdins 1-5 and rat cryptdin-1. Amino acid residues are indicated by single-letter code. Dashed lines are included in mouse cryptdin-4 and rat cryptdin-1 in order to preserve the consensus sequence where these peptides are shorter than other cryptdins. Invariant residues in the enteric cryptdin peptides are boxed. […] Acid extract of jejunum and ileum was chromatographed in 30% acetic acid on a P-60 column. Fractions indicated by the bracket (panel A) were pooled and rechromatographed on the P-60 column (panel B). Cryptdin containing fractions (bracket, panel B) were pooled and further purified by RP-HPLC on 0.46 x 25 cm Vydac C-18 column. Water-acetonitrile gradient elution (--) using 0.13% (vol/vol) HFBA as modifier was used to purify cryptdins 1-5. […] Samples of low molecular weight enteric peptides obtained by P-60 gel filtration (Figure 2, [panel B]) and purified cryptdins were electrophoresed on a 12.5% acid-urea gel and stained with formalin-containing Coomassie Blue. […] After incubation at 37°C for 18 hours, antimicrobial activity was evaluated by measurement of the diameters of the clear zones. […]
(§2) The antimicrobial, or antibacterial, activity of cryptdins can be measured against various pathogens. […]

[2] = tested on: isogenic phoP mutant of S. typhimurium (strain CS015 phoP102::Tn10d-Cam); experiment: as above; assay type: cell-based; settings: phoP mutant (attenuated, avirulent) S. typhimurium; modified plate diffusion assay; result in words, compared with wild-type
Source text: as §1, §2

[3] = tested on: phoP mutant S. typhimurium; settings: compared to wild-type parent strains; Fields et al., Miller et al. 1990; cited from earlier work

Row | Substance | antimicrobial activity [1] | antimicrobial activity [2] | sensitivity of mutants in the phoP locus [3]
1 | NP-1: rabbit defensin (VVCACRRALCLPRERRAGFCRIRGRIHPLCCRR; ends and bridges not checked; cysteine pairing not given here; UniProt P01376 63-95, looked up) | quite similar | quite similar | particularly sensitive
2 | NP-2: rabbit defensin (VVCACRRALCLPLERRAGFCRIRGRIHPLCCRR; ends and bridges not checked; cysteine pairing not given here; UniProt P01377 63-95, looked up) | – | – | particularly sensitive
